Series [1] addresses T1, Estrogen Receptor (ERα) in MCF-7 cells (Homo sapiens (Human), UniProt P03372). The series can be described thus: MCF-7 ER down-regulation assay (immuno-fluorescence). The format is cell-based. In outline: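 Compounds dispensed acoustically from DMSO stocks onto MCF-7 cells; cells fixed 20 min at room temperature, then automated immunostaining for ERα with overnight incubation at 4° C. Read-out is mean total ER fluorescence intensity normalized to cell number (intensity per cell), with curve fitting for concentration-response values.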

Series [2] has as its target estrogen receptor (ERα) in CAMA-1 cells (Homo sapiens (Human), UniProt P03372). The series can be described thus: Western blotting assay, ER down-regulation in CAMA-1. The format is cell-based. The settings on record: 100 nM compound, 48 h, normalised to 100 nM fulvestrant. In outline: (§1)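 Cells treated with compounds at 100 nM or 0.1% DMSO vehicle for 48 h at 37 °C, then lysed; ERα detected by western blot with anti-ERα (SP1) rabbit monoclonal. Down-regulation normalised to vehicle (0%) and 100 nM fulvestrant (100%) run on the same gel.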

For series [3], the target named is T1, Estrogen Receptor (ERα) in MCF-7 cells. Kind of series: Western blotting assay, ER down-regulation in MCF-7. Type of series: cell-based. To be noted: 100 nM compound, 48 h, normalised to 100 nM fulvestrant. In outline:
as §1

Series [4] can be described thus: Human hepatocyte assay (metabolic stability). The format is in vitro ADME. To be noted: human hepatocytes. Here is the method:
The metabolic stability of compounds in human hepatocytes was assessed using the following protocol: • 1. Prepare 10 mM stock solutions of compound and control compounds in appropriate solvent (DMSO). Place incubation medium (L-15 Medium) in a 37° C. water bath, and allow warming for at least 15 minutes prior to use. • 2. Add 80 μL of acetonitrile to each well of the 96-well deep well plate (quenching plate). • 3. In a new 96-well plate, dilute the 10 mM test compounds and the control compounds to 100 μM by combining 198 μL of acetonitrile and 2 μL of 10 mM stock. • 4. Remove a vial of cryopreserved (less than −150° C.) human hepatocytes (LiverPool™ 10 Donor Human hepatocytes obtained from Celsis IVT. Chicago, Ill. (Product No. S01205)) from storage, ensuring that vials remain at cryogenic temperatures until thawing process ensues. As quickly as possible, thaw the cells by placing the vial in a 37° C. water bath and gently shaking the vials. Vials should remain in water bath until all ice crystals have dissolved and are no longer visible. After thawing is complete, spray vial with 70% ethanol, transfer the vial to a bio-safety cabinet. • 5. Open the vial and pour the contents into the 50 mL conical tube containing thawing medium. Place the 50 mL conical tube into a centrifuge and spin at 100 g for 10 minutes. […] Using Cellometer® Vision, count cells and determine the viable cell density. Cells with poor viability (<80% viability) are not acceptable for use. […] Transfer 247.5 μL of hepatocytes into each well of a 96-well cell culture plate. Place the plate on Eppendorf Thermomixer Comfort plate shaker to allow the hepatocytes to warm for 10 minutes. • 8. Add 2.5 μL of 100 μM test compound or control compounds into an incubation well containing cells, mix to achieve a homogenous suspension at 0.5 min, which when achieved, will define the 0.5 min time point. At the 0.5 min time, transfer 20 μL of incubated mixture to wells in a “Quenching plate” followed by vortexing. • 9. Incubate the plate at 37° C. at 900 rpm on an Eppendorf Thermomixer Comfort plate shaker. […] Centrifuge the quenching plates for 20 minutes at 4,000 rpm. 4 different compounds are pooled into one cassette and used for LC/MS/MS analysis.
All calculations were carried out using Microsoft Excel. Peak areas were determined from extracted ion chromatograms. In vitro intrinsic clearance (in vitro Clint, in […]) of parent compound was determined by regression analysis of the Ln percent parent disappearance vs. time curve.
V=incubation volume (0.25 mL);
N=number of hepatocytes per well (0.25×10^6 cells).

Series [5] in a line: Human Caco-2 bidirectional permeability A to B and B to A. The format is in vitro ADME. To be noted: for Papp at 2 h: Caco-2, 2 hours, pH 7.4; for efflux ratio at 2 h: Caco-2, pH 7.4.
Series [6] in a line: Human Caco-2 passive permeability A to B Papp. Type of series: in vitro ADME. To be noted: apical pH 6.5, basolateral pH 7.4, efflux inhibitor cocktail. The protocol:
An automated assay was used to determine the passive permeability of compounds in Caco-2 cell monolayers carried out over 2 hours with an apical pH of 6.5 and basolateral pH of 7.4. The Caco-2 AB inhibition assay is carried out with chemical inhibition of the three major efflux transporters ABCB1 (P-gp), ABCG2 (BCRP) and ABCC2 (MRP2) in Caco-2 cells. Incubation of both apical and basolateral is carried out with a cocktail of inhibitors (50 μM quinidine, 20 μM sulfasalazine and 100 μM benzbromarone). Samples were analyzed through LC/MS/MS to estimate the apparent permeability coefficients (Papp) of compounds across Caco-2 cell monolayers and results are quoted in units of ×10^−6 cm/s.

The record followed here is patent US10131663B2, “Chemical compounds” (AstraZeneca AB, priority 2016, dated 2018).

Broadly, the IC50 is the concentration needed to halve the response being measured. A lower IC50 goes with higher potency. In general, hepatocyte CLint refers to a measure of how fast metabolising enzymes remove a compound, apart from limits set by blood flow. High values mean faster metabolism, low ones greater metabolic stability. Broadly, the Papp is a coefficient for how fast a substance crosses the barrier. Low values mean poor permeation, high ones ready permeation. As a reminder, the efflux ratio is a quotient of directional permeabilities that is used to spot active efflux.

Chain of estrogen receptor (ERα) in CAMA-1 cells (P03372 whole entry): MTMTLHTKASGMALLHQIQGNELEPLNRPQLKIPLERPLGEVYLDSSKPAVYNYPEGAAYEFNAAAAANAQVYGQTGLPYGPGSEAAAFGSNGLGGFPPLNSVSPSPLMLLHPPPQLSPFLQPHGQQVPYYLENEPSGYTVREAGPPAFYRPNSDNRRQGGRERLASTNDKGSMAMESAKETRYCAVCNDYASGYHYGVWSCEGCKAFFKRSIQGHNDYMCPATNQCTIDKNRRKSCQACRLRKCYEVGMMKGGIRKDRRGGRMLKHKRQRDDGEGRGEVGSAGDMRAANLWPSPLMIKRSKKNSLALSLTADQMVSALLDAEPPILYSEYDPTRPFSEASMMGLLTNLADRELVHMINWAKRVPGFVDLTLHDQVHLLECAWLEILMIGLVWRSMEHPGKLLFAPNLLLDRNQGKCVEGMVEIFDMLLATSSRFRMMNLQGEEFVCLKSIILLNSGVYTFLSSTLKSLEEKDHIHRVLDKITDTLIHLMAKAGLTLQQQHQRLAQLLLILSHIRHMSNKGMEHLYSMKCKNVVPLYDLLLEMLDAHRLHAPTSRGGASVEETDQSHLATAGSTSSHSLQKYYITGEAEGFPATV
T1 sequence (P03372 whole entry): as above

In the case of `COc1cc(NC2CN(CCCF)C2)ccc1[C@@H]1c2ccc3[nH]ncc3c2C[C@@H](C)N1CC(F)F` [Example 21, N-(4-((6S,8R)-7-(2,2-difluoroethyl)-8-methyl-6,7,8,9-tetrahydro-3H-pyrazolo[4,3-f]isoquinolin-6-yl)-3-methoxyphenyl)-1-(3-fluoropropyl)azetidin-3-amine], in series [1], half-maximal inhibition (IC50) required 0.098 nM. Besides, in series [2], the “CAMA1 Western % ER deg vs Fv” value amounted to 101%. The “MCF7 Western % ER deg vs Fv” value in series [3] amounted to 99%. Further, the hepatocyte CLint at 1 µM in series [4] is 6 µL/min/1e6 cells. Besides, the Papp at 2 h in series [5] is 4 ×10⁻⁶ cm/s; in series [6], 14.1 ×10⁻⁶ cm/s. Moreover, the efflux ratio at 2 h in series [5] was found to be 1.6.
In the case of `C[C@@H]1Cc2c(ccc3[nH]ncc23)[C@@H](c2ccc(NC3CN(CCCF)C3)cn2)N1CC(F)(F)F` [Example 17, N-(1-(3-fluoropropyl)azetidin-3-yl)-6-((6S,8R)-8-methyl-7-(2,2,2-trifluoroethyl)-6,7,8,9-tetrahydro-3H-pyrazolo[4,3-f]isoquinolin-6-yl)pyridin-3-amine], the “CAMA1 Western % ER deg vs Fv” value in series [2] was 96%. The “MCF7 Western % ER deg vs Fv” value in series [3] came to 92%. In series [4], this compound had an intrinsic metabolic clearance (hepatocyte CLint) at 1 µM of 6 µL/min/1e6 cells. Further, the Papp at 2 h came out at 4.7 ×10⁻⁶ cm/s in series [5] and 13.3 ×10⁻⁶ cm/s in series [6].
For the compound `C[C@@H]1Cc2c(ccc3[nH]ncc23)[C@@H](c2ccc(NC3CN(CCCF)C3)cn2)N1CC(F)F` [Example 25, 6-((6S,8R)-7-(2,2-difluoroethyl)-8-methyl-6,7,8,9-tetrahydro-3H-pyrazolo[4,3-f]isoquinolin-6-yl)-N-(1-(3-fluoropropyl)azetidin-3-yl)pyridin-3-amine], the IC50 in series [1] stood at 0.33 nM. Besides, in series [2], the “CAMA1 Western % ER deg vs Fv” value was determined as 96%. Moreover, the “MCF7 Western % ER deg vs Fv” value in series [3] amounted to 98%. The hepatocyte CLint at 1 µM in series [4] came out at 5 µL/min/1e6 cells. Besides, in series [5], the Papp at 2 h amounted to 5 ×10⁻⁶ cm/s and the efflux ratio at 2 h was 7.4. This compound yielded a Papp at 2 h in series [6] of 5.9 ×10⁻⁶ cm/s.
`COc1cc(NC2CN(CCCF)C2)ccc1[C@@H]1c2ccc3[nH]ncc3c2C[C@@H](C)N1CC(F)(F)F` [Example 28, 1-(3-fluoropropyl)-N-(3-methoxy-4-((6S,8R)-8-methyl-7-(2,2,2-trifluoroethyl)-6,7,8,9-tetrahydro-3H-pyrazolo[4,3-f]isoquinolin-6-yl)phenyl)azetidin-3-amine] gave an IC50 in series [1] of 0.065 nM. Further, the “CAMA1 Western % ER deg vs Fv” value in series [2] was determined as 110%. Also, the “MCF7 Western % ER deg vs Fv” value in series [3] is given as 95%. The same compound had a hepatocyte CLint at 1 µM in series [4] of 5 µL/min/1e6 cells. Moreover, in series [5], the Papp at 2 h amounted to 1.2 ×10⁻⁶ cm/s and the efflux ratio at 2 h came to 3.8. In addition, in series [6], the apparent permeability (Papp) at 2 h is 24 ×10⁻⁶ cm/s.
Compound `COc1cc(NC2CN(CCCF)C2)ccc1[C@@H]1c2ccc3[nH]ncc3c2C[C@@H](C)N1CC1(F)CC1` [Example 6, N-(4-((6S,8R)-7-((1-fluorocyclopropyl)methyl)-8-methyl-6,7,8,9-tetrahydro-3H-pyrazolo[4,3-f]isoquinolin-6-yl)-3-methoxyphenyl)-1-(3-fluoropropyl)azetidin-3-amine] registered an IC50 in series [1] of 0.35 nM. Moreover, in series [2], the “CAMA1 Western % ER deg vs Fv” value stood at 84%. The “MCF7 Western % ER deg vs Fv” value in series [3] stood at 89%. For the same compound, the hepatocyte CLint at 1 µM in series [4] amounted to 2 µL/min/1e6 cells. In series [5], the Papp at 2 h turned out to be 0.9 ×10⁻⁶ cm/s and the efflux ratio at 2 h was 28. Moreover, in series [6], the Papp at 2 h is 1.8 ×10⁻⁶ cm/s.
